# Data taken from PubChem BioAssay (NCI).
#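 Test compounds were applied to cells in 96-well plates for 48 hours at 5 doses. TGI marks complete inhibition of growth.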
# Key:
# Test in all cases: NCI tumour cell line growth inhibition, 48 h
# [1] = test system: OVCAR-5 ovarian
# [2] = test system: BT-549 breast
# [3] = test system: RPMI-8226 leukemia
# [4] = test system: KM12 colon
# [5] = test system: DU-145 prostate
# [6] = test system: UACC-257 melanoma
# [7] = test system: SNB-19 CNS
# [8] = test system: OVCAR-4 ovarian
# [9] = test system: HS 578T breast
# [10] = test system: RXF 393 renal
# [11] = test system: HT29 colon
# [12] = test system: MDA-N
# [13] = test system: CCRF-CEM leukemia
# [14] = test system: U251 CNS
# [15] = test system: SF-268 CNS
# [16] = test system: T-47D breast
# [17] = test system: A498 renal
# [18] = test system: COLO 205 colon
# [19] = test system: MDA-MB-231 breast
# [20] = test system: SN12C renal
# [21] = test system: NCI-H226 lung
# [22] = test system: M14 melanoma
# [23] = test system: UACC-62 melanoma
# [24] = test system: MCF7 breast
# [25] = test system: HCC-2998 colon
# [26] = test system: SK-MEL-28 melanoma
# [27] = test system: SK-OV-3 ovarian
# [28] = test system: NCI/ADR-RES ovarian
# [29] = test system: HCT-15 colon
# [30] = test system: SNB-75 CNS
# [31] = test system: MALME-3M melanoma
# [32] = test system: HCT-116 colon
# [33] = test system: MDA-MB-435
# [34] = test system: SK-MEL-2 melanoma
# [35] = test system: UO-31 renal
# [36] = test system: A549 NSCLC
# [37] = test system: 786-0 renal
# [38] = test system: MOLT-4 leukemia
# [39] = test system: SW-620 colon
# [40] = test system: OVCAR-8 ovarian
# [41] = test system: NCI-H23 lung
# [42] = test system: PC-3 prostate
# [43] = test system: ACHN renal
# [44] = test system: CAKI-1 renal
# [45] = test system: EKVX NSCLC
# [46] = test system: OVCAR-3 ovarian
# [47] = test system: NCI-H460 lung
# [48] = test system: K-562 leukemia
# [49] = test system: SF-539 CNS
# [50] = test system: HOP-62 NSCLC
# [51] = test system: SF-295 CNS
# [52] = test system: TK-10 renal
# [53] = test system: HOP-92 NSCLC
# [54] = test system: LOX IMVI melanoma
# [55] = test system: SK-MEL-5 melanoma
# [56] = test system: IGROV1 ovarian
# [57] = test system: NCI-H522 lung
# [58] = test system: HL-60(TB) leukemia
structure (smiles),measurement,setting,value
Cc1n[nH]c(=O)n1/N=C/c1cccc(Cl)c1,TGI,[1],> 100 µM
same,TGI,[2],> 100 µM
same,TGI,[3],> 100 µM
same,TGI,[4],> 100 µM
same,TGI,[5],> 100 µM
same,TGI,[6],> 100 µM
same,TGI,[7],> 100 µM
same,TGI,[8],> 100 µM
same,TGI,[9],39.7 µM
same,TGI,[10],> 100 µM
same,TGI,[11],> 100 µM
same,TGI,[12],> 100 µM
same,TGI,[13],> 100 µM
same,TGI,[14],> 100 µM
same,TGI,[15],> 100 µM
same,TGI,[16],> 100 µM
same,TGI,[17],> 100 µM
same,TGI,[18],> 100 µM
same,TGI,[19],> 100 µM
same,TGI,[20],> 100 µM
same,TGI,[21],> 100 µM
same,TGI,[22],> 100 µM
same,TGI,[23],> 100 µM
same,TGI,[24],> 100 µM
same,TGI,[25],> 100 µM
same,TGI,[26],> 100 µM
same,TGI,[27],> 100 µM
same,TGI,[28],> 100 µM
same,TGI,[29],> 100 µM
same,TGI,[30],> 100 µM
same,TGI,[31],> 100 µM
same,TGI,[32],> 100 µM
same,TGI,[33],> 100 µM
same,TGI,[34],> 100 µM
same,TGI,[35],> 100 µM
same,TGI,[36],> 100 µM
same,TGI,[37],> 100 µM
same,TGI,[38],> 100 µM
same,TGI,[39],> 100 µM
same,TGI,[40],> 100 µM
same,TGI,[41],> 100 µM
same,TGI,[42],> 100 µM
same,TGI,[43],> 100 µM
same,TGI,[44],> 100 µM
same,TGI,[45],> 100 µM
same,TGI,[46],> 100 µM
same,TGI,[47],> 100 µM
same,TGI,[48],> 100 µM
same,TGI,[49],> 100 µM
same,TGI,[50],> 100 µM
same,TGI,[51],> 100 µM
C=CCN(c1cc(OCc2ccccc2)c2c(c(C)cn2S(=O)(=O)c2ccc([N+](=O)[O-])cc2)c1[N+](=O)[O-])S(C)(=O)=O,TGI,[1],> 100 µM
same,TGI,[2],> 100 µM
same,TGI,[3],> 100 µM
same,TGI,[4],> 100 µM
same,TGI,[5],> 100 µM
same,TGI,[6],> 100 µM
same,TGI,[7],> 100 µM
same,TGI,[8],> 100 µM
same,TGI,[9],> 100 µM
same,TGI,[10],> 100 µM
same,TGI,[52],> 100 µM
same,TGI,[53],> 100 µM
same,TGI,[11],> 100 µM
same,TGI,[12],> 100 µM
same,TGI,[54],> 100 µM
same,TGI,[13],> 52.3 µM
same,TGI,[14],> 100 µM
same,TGI,[15],> 100 µM
same,TGI,[16],> 100 µM
same,TGI,[18],> 100 µM
same,TGI,[55],> 100 µM
same,TGI,[19],> 100 µM
same,TGI,[20],> 100 µM
same,TGI,[21],> 100 µM
same,TGI,[22],> 100 µM
same,TGI,[23],> 100 µM
same,TGI,[24],> 100 µM
same,TGI,[25],> 100 µM
same,TGI,[26],> 100 µM
same,TGI,[27],> 100 µM
same,TGI,[28],> 100 µM
same,TGI,[29],> 100 µM
same,TGI,[30],> 100 µM
same,TGI,[56],> 100 µM
same,TGI,[31],> 100 µM
same,TGI,[32],> 100 µM
same,TGI,[33],54.1 µM
same,TGI,[57],> 100 µM
same,TGI,[34],> 100 µM
same,TGI,[35],> 100 µM
same,TGI,[36],> 100 µM
same,TGI,[37],> 100 µM
same,TGI,[38],> 100 µM
same,TGI,[40],> 100 µM
same,TGI,[41],> 100 µM
same,TGI,[42],> 100 µM
same,TGI,[43],> 100 µM
same,TGI,[44],> 100 µM
same,TGI,[45],> 100 µM
same,TGI,[46],> 100 µM
same,TGI,[47],> 100 µM
same,TGI,[48],> 100 µM
same,TGI,[49],> 100 µM
same,TGI,[50],> 100 µM
same,TGI,[51],> 100 µM
C[n+]1c2ccccc2c2/c(=C\C#N)c3ccccc3n21,TGI,[1],26.1 µM
same,TGI,[2],8.42 µM
same,TGI,[3],16.9 µM
same,TGI,[4],31.7 µM
same,TGI,[5],45.8 µM
same,TGI,[6],20.8 µM
same,TGI,[7],> 100 µM
same,TGI,[8],11.4 µM
same,TGI,[9],> 100 µM
same,TGI,[10],21.9 µM
same,TGI,[52],8.46 µM
same,TGI,[11],16.5 µM
same,TGI,[12],18.6 µM
same,TGI,[54],16.6 µM
same,TGI,[13],50.2 µM
same,TGI,[14],13.9 µM
same,TGI,[15],29.3 µM
same,TGI,[16],58.5 µM
same,TGI,[17],82.8 µM
same,TGI,[18],4.87 µM
same,TGI,[55],61.3 µM
same,TGI,[19],82.3 µM
same,TGI,[20],38 µM
same,TGI,[21],17.6 µM
same,TGI,[22],18.6 µM
same,TGI,[23],54.2 µM
same,TGI,[58],26.3 µM
same,TGI,[24],21.7 µM
same,TGI,[25],5.27 µM
same,TGI,[26],30.3 µM
same,TGI,[27],16 µM
same,TGI,[28],> 100 µM
same,TGI,[29],97.2 µM
same,TGI,[30],8.16 µM
same,TGI,[56],12.2 µM
same,TGI,[31],7.55 µM
same,TGI,[32],8.45 µM
same,TGI,[33],28.1 µM
same,TGI,[34],8.52 µM
same,TGI,[35],26.7 µM
same,TGI,[36],32.9 µM
same,TGI,[37],14.8 µM
same,TGI,[38],57.7 µM
same,TGI,[39],11.8 µM
same,TGI,[40],15.9 µM
same,TGI,[41],77.1 µM
same,TGI,[43],18.5 µM
same,TGI,[44],95.4 µM
same,TGI,[45],6.54 µM
same,TGI,[46],33.1 µM
same,TGI,[47],22.8 µM
same,TGI,[48],> 100 µM
same,TGI,[49],17.5 µM
same,TGI,[50],8.17 µM
same,TGI,[51],19.2 µM
C[C@@H]1OC(=O)C[C@H]2CC(=O)N(CCC3CN(C(=O)c4ccccc4)c4ccccc43)C[C@@H]21 (stereo partly drawn),TGI,[1],> 100 µM
same,TGI,[2],> 100 µM
same,TGI,[3],> 100 µM
same,TGI,[4],> 100 µM
same,TGI,[5],> 100 µM
same,TGI,[6],> 100 µM
same,TGI,[7],> 100 µM
same,TGI,[8],> 100 µM
same,TGI,[9],> 100 µM
same,TGI,[10],> 100 µM
same,TGI,[52],> 100 µM
same,TGI,[53],> 100 µM
same,TGI,[11],> 100 µM
same,TGI,[12],> 100 µM
same,TGI,[14],> 100 µM
same,TGI,[15],> 100 µM
same,TGI,[16],> 100 µM
same,TGI,[17],> 100 µM
same,TGI,[18],> 100 µM
same,TGI,[55],> 100 µM
same,TGI,[19],> 100 µM
same,TGI,[22],> 100 µM
same,TGI,[23],> 100 µM
same,TGI,[24],> 100 µM
same,TGI,[25],> 100 µM
same,TGI,[26],> 100 µM
same,TGI,[27],> 100 µM
same,TGI,[28],> 100 µM
same,TGI,[29],> 100 µM
same,TGI,[30],> 100 µM
same,TGI,[56],> 100 µM
same,TGI,[31],> 100 µM
same,TGI,[32],> 100 µM
same,TGI,[33],> 100 µM
same,TGI,[57],> 100 µM
same,TGI,[34],> 100 µM
same,TGI,[35],> 100 µM
same,TGI,[36],> 100 µM
same,TGI,[37],> 100 µM
same,TGI,[38],> 100 µM
same,TGI,[39],> 100 µM
same,TGI,[40],> 100 µM
same,TGI,[41],> 100 µM
same,TGI,[42],> 100 µM
same,TGI,[43],> 100 µM
same,TGI,[44],> 100 µM
same,TGI,[45],> 100 µM
same,TGI,[46],> 100 µM
same,TGI,[47],> 100 µM
same,TGI,[48],> 100 µM
same,TGI,[50],> 100 µM
same,TGI,[51],> 100 µM
COc1ccc(N2C(=O)C3c4[nH]c5cccc(Cl)c5c4C4CCC(C(C)(C)C)CC4C3C2=O)cc1 (stereo not drawn),TGI,[1],> 100 µM
same,TGI,[2],> 100 µM
same,TGI,[3],> 100 µM
same,TGI,[4],> 100 µM
same,TGI,[5],> 100 µM
same,TGI,[6],> 100 µM
same,TGI,[7],> 100 µM
same,TGI,[8],> 100 µM
same,TGI,[9],90.7 µM
same,TGI,[52],> 100 µM
same,TGI,[53],> 100 µM
same,TGI,[11],> 100 µM
same,TGI,[12],> 100 µM
same,TGI,[54],> 100 µM
same,TGI,[14],> 100 µM
same,TGI,[15],> 100 µM
same,TGI,[16],> 100 µM
same,TGI,[17],> 100 µM
same,TGI,[18],> 100 µM
same,TGI,[55],> 100 µM
same,TGI,[19],> 100 µM
same,TGI,[20],> 100 µM
same,TGI,[21],> 100 µM
same,TGI,[22],> 100 µM
same,TGI,[23],> 100 µM
same,TGI,[24],> 100 µM
same,TGI,[25],> 100 µM
same,TGI,[26],> 100 µM
same,TGI,[27],> 100 µM
same,TGI,[28],> 100 µM
same,TGI,[29],> 100 µM
same,TGI,[30],53.2 µM
same,TGI,[56],> 100 µM
same,TGI,[31],> 100 µM
same,TGI,[32],> 100 µM
same,TGI,[33],> 100 µM
same,TGI,[57],> 100 µM
same,TGI,[34],> 100 µM
same,TGI,[35],> 100 µM
same,TGI,[36],> 100 µM
same,TGI,[37],> 100 µM
same,TGI,[38],> 100 µM
same,TGI,[39],> 100 µM
same,TGI,[40],> 100 µM
same,TGI,[41],> 100 µM
same,TGI,[42],> 100 µM
same,TGI,[43],> 100 µM
same,TGI,[44],> 100 µM
same,TGI,[45],> 100 µM
same,TGI,[46],> 100 µM
same,TGI,[47],> 100 µM
same,TGI,[48],> 100 µM
same,TGI,[49],> 100 µM
same,TGI,[50],53.5 µM
same,TGI,[51],> 100 µM
